Values quoted from earlier work, collected in patent US20190231691A1, “Biopharma Application Of Micell Technology” (Micell Technologies, Inc., priority 2015, published 2019).

Conditions: in vivo

For `CO[C@H]1C[C@@H]2CC[C@@H](C)[C@@](O)(O2)C(=O)C(=O)N2CCCC[C@H]2C(=O)O[C@H]([C@H](C)C[C@@H]2CC[C@@H](O)[C@H](OC)C2)CC(=O)[C@H](C)/C=C(\C)[C@@H](O)[C@@H](OC)C(=O)[C@H](C)C[C@H](C)/C=C/C=C/C=C/1C` [rapamycin], the bioavailability is given as “less than 14%”.
